In PMC11643494, “Structure–Activity Relationship Studies in a Series of 2-Aryloxy-N-(pyrimidin-5-yl)acetamide Inhibitors of SLACK Potassium Channels” (Molecules, 2024):

Biological target: T1, Human A934T SLACK (Homo sapiens, UniProt Q5JUK3, A915T)
T1 construct: host or cells: CHO-K1
T1 sequence (Q5JUK3 1-1235 isoform Q5JUK3-3 A934T): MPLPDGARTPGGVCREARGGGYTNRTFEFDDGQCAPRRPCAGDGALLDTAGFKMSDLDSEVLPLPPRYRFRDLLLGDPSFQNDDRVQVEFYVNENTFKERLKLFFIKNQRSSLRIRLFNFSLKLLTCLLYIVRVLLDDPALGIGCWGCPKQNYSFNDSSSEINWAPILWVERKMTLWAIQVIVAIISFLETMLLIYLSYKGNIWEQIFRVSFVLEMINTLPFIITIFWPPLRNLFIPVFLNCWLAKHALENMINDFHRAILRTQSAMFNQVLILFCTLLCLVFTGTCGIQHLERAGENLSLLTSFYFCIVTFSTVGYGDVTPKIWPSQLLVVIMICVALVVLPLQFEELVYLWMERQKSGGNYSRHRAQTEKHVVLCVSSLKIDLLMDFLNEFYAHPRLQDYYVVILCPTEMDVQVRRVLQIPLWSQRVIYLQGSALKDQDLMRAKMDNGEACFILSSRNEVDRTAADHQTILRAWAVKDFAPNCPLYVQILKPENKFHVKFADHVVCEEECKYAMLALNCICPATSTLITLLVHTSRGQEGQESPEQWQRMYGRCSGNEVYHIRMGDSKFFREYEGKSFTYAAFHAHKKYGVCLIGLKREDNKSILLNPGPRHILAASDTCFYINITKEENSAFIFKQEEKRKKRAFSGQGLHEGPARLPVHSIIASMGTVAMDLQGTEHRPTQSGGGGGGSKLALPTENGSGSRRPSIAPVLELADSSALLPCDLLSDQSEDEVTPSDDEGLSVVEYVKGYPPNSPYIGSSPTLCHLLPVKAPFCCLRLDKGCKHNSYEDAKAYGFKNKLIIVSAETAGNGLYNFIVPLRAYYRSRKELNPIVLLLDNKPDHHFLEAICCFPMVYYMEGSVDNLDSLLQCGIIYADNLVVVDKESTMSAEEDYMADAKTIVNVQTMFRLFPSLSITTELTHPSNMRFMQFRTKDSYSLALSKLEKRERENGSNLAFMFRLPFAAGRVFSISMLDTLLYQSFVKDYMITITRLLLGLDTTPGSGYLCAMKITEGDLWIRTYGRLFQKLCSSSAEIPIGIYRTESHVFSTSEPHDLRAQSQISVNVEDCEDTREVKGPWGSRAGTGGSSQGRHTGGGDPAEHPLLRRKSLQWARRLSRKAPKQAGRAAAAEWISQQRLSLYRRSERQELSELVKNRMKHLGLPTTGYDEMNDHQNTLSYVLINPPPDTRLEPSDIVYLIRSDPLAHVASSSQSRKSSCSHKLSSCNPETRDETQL
Assay: Whole-cell APC in CHO-K1 cells stably expressing human A934T SLACK
Format: cell-based
Details: for IC50: APC, CHO-K1 cells; for Imax: maximum inhibition at 30 µM standardized to VU0606170 (set at 100%)
Source text: Finally, we chose to screen the same two compounds versus mouse SLACK and two clinically relevant GOF SLACK mutants in APC assays utilizing CHO-K1 cells stably expressing these targets (Table 7). Screening versus the mouse homolog was deemed important for evaluating the potential of the series to ultimately lead to a useful in vivo tool via further optimization.
Stably transfected monoclonal HEK293 cell lines expressing SLICK, Maxi-K α1/β3, Maxi-K α1/β4, CaV3.2, GIRK 1/2, KV2.1, KV7.2, NaV1.7, and TASK-1 were generated as previously described. Stably transfected monoclonal HEK293 cell lines expressing hERG were generated as previously described. CHO-K1 cells expressing human SLACK and disease-associated human SLACK mutations, G288S and A934T, were generated by transfecting a PiggyBac TRE mammalian expression vector (VectorBuilder, Chicago, IL, USA) containing KCNT1. FuGENE 6 (Promega, Madison, WI, USA) transfection reagent and protocol, together with Opti-MEM (Thermo Fisher Scientific, Waltham, MA, USA), were utilized according to the manufacturer’s instructions.
Automated patch clamp recording was performed with a SyncroPatch 768 PE system (Nanion, Munich, Germany) as previously described. Whole-cell recordings were performed at room temperature. Cells were harvested by first washing with PBS without Mg^2+ or Ca^2+ (Gibco, Billings, MT, USA) to remove cell culture medium, followed by dissociation with TryPLE (Gibco, Billings, MT, USA). Cells were then resuspended and diluted to 200,000 cells/mL in external solution. External solution contained 105 mM NaCl, 4 mM KCl, 1 mM MgCl2, 5 mM CaCl2, 10 mM HEPES, 40 mM N-Methyl-D-glucamine chloride, titrated to pH 7.4 with NaOH and osmolarity of 300 mOsm/kg; internal solution contained 70 mM NaCl, 70 mM KF, 10 mM KCl, 5 mM EGTA, 5mM HEPES, titrated to a pH 7.2 with KOH and osmolarity of 295 mOsm/kg.
The APC protocol was set as following: Cells were held at […] −80 mV for 100 ms, then a ramp protocol was performed from −100 mV to 80 mV at 0.4 mV/ms, hold the cell at −80 mV for another 100 ms, then steps were performed at −20 mV, 0 mV, +20 mV, +40 mV, and +60 mV for 100 ms of each step. Whole-cell currents were measured at 0 mV and normalized to current after external buffer addition.

SMILES	IC50 [µM]	Imax [%]
CC(C)(Oc1ccc(Cl)cc1)C(=O)Nc1cnc(Oc2c(F)cccc2F)nc1 [Analog 40]	0.41	96
CN(c1ccc(C#N)cc1)c1ncc(NC(=O)C(C)(C)Oc2ccc(Cl)cc2)cn1 [Analog 66]	1.2	84
